Like-named read-outs stand apart in the source and are kept apart here. Square brackets hold non-standard residues; d marks the D form. Peptide text beside a SMILES is read from it. * marks the point of attachment. X3 = O=C(CSCC(=O)*)NCCn1ccccc1=O; Aib = CC(C)(N)C(=O)O

What all share (format): cell-based
The target in assay [1] is T1, GLP-1R (Homo sapiens, UniProt P43220). Briefly: HitHunter cAMP assay (GLP-1R). The conditions noted are these: cAMP; for Emax: read-out: (Emax) GLP-1R. An outline of the steps: (§1)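 Suspension cells expressing each receptor (10,000 per well) in HBSS with 10 mM HEPES, 625 μM IBMX and 0.2% BSA were treated with a 22-point 2-fold agonist series in duplicate for 30 minutes at room temperature. cAMP was detected by antibody immunocompetition with luminescence read after overnight incubation.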
Background: cAMP levels reflect the balance of adenylyl cyclase and phosphodiesterase activity.

Assay [2] deals with T1, GLP-1R. The assay is described as follows: PathHunter β-arrestin assay. An outline of the steps: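 Cells seeded overnight, then medium replaced with medium containing 0.2% BSA; agonists added as 22-point 2-fold DMSO dilution series in duplicate and incubated 90 min at 37 °C, 5% CO2. After addition of detection solution, plates sat 3 h at room temperature in the dark; luminescence read.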

The target in assay [3] is T2, GIP-R (Homo sapiens, UniProt P48546).
T2 sequence (P48546 22-466): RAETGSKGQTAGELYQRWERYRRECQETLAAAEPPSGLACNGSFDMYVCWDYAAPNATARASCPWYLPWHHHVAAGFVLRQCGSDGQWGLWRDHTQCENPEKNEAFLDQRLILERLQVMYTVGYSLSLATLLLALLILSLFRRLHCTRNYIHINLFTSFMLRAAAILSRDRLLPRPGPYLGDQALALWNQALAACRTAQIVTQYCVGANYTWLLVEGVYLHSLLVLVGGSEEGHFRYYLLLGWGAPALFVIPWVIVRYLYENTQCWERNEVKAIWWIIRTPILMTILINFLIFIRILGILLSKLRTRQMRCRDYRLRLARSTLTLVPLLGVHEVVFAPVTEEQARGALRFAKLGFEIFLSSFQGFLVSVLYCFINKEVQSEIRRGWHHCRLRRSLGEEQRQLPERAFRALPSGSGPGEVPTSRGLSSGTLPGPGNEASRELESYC
Briefly: HitHunter cAMP assay (GIP-R). The conditions noted are these: cAMP; for Emax: read-out: (Emax) GIP-R. The essentials:
as §1

Setting [4] is: Table 3, read-out: EC50 GLP-1R/nM.
[5] abbreviates: Table 3A, read-out: EC50 GLP-1R/nM.
Where [6] appears, read: PathHunter β-arrestin assay, read-out: β-arrestin activity EC50.
Setting [7] is: Table 3, read-out: EC50 GIP-R/nM.
Where [8] appears, read: Table 3A, read-out: EC50 GIP-R/nM.
The mark [9] stands for this setting: read-out: EC50 GIP-R/nM, Table 3.
The mark [10] stands for this setting: read-out: EC50 GIP-R/nM, Table 3A.

T1 sequence (P43220 24-463): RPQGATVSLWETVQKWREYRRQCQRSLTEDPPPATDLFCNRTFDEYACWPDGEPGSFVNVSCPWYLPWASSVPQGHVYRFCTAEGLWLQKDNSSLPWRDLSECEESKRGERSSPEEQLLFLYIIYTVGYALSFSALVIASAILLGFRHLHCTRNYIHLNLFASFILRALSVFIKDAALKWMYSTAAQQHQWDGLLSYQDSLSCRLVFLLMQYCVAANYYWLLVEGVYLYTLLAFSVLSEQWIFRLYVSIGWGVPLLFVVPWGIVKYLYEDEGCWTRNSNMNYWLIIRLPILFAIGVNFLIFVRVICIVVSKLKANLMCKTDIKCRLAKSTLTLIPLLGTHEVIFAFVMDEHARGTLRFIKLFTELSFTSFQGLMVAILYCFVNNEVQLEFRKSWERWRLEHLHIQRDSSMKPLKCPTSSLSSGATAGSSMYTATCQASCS

The Emax is the greatest response seen or fitted, relative to the assay's reference. Turning to `CC[C@H](C)[C@H](NC(=O)[C@H](CO)NC(=O)[C@H](Cc1ccc(O)cc1)NC(=O)[C@H](CC(=O)O)NC(=O)[C@H](CO)NC(=O)[C@@H](NC(=O)[C@H](Cc1ccccc1)NC(=O)[C@@H](NC(=O)CNC(=O)[C@H](CCC(=O)O)NC(=O)CSCC(=O)NCCn1ccccc1=O)[C@@H](C)O)[C@@H](C)O)C(=O)N[C@@H](Cc1ccc(O)cc1)C(=O)N[C@@H](CC(C)C)C(=O)N[C@@H](CC(=O)O)C(=O)N[C@@H](CCCCN)C(=O)N[C@@H](CCC(N)=O)C(=O)N[C@@H](C)C(=O)N[C@@H](C)C(=O)NC(C)(C)C(=O)N[C@@H](CCC(=O)O)C(=O)N[C@@H](Cc1ccccc1)C(=O)N[C@H](C(=O)N[C@@H](CC(N)=O)C(=O)N[C@@H](Cc1c[nH]c2ccccc12)C(=O)N[C@@H](CC(C)C)C(=O)N[C@@H](CC(C)C)C(=O)N[C@@H](C)C(=O)NCC(=O)NCC(=O)N1CCC[C@H]1C(=O)N[C@@H](CO)C(=O)N[C@@H](CO)C(=O)NCC(=O)N[C@@H](C)C(=O)N1CCC[C@H]1C(=O)N1CCC[C@H]1C(=O)N1CCC[C@H]1C(=O)N[C@@H](CO)C(=O)N[C@@H](CCCCN)C(N)=O)[C@@H](C)CC` [Compound 118] (X3-EGTFTSDYSIYLDKQAA[Aib]EFINWLLAGGPSSGAPPPSK-NH2), the Emax was 95% in assay [1] (Table 3), 95% in assay [1] (Table 3A), 35% in assay [3] (Table 3) and 35% in assay [3] (Table 3A). In addition, the EC50 in assay [1] (setting [4]) is less than 0.1 nM; in assay [1] (setting [5]), less than 0.1 nM; in assay [2] (setting [6]) it was greater than 1000 nM; in assay [3] (setting [7]), 1 to 10 nM; in assay [3] (setting [8]) it was 1 to 10 nM.

As to `CC[C@H](C)[C@H](NC(=O)[C@H](CO)NC(=O)[C@H](Cc1ccc(O)cc1)NC(=O)[C@H](CC(=O)O)NC(=O)[C@H](CO)NC(=O)[C@@H](NC(=O)[C@H](Cc1ccccc1)NC(=O)[C@@H](NC(=O)CNC(=O)[C@H](CCC(=O)O)NC(=O)C1(C(=O)NCCN2C(=O)CSC2=O)CCCCC1)[C@@H](C)O)[C@@H](C)O)C(=O)N[C@@H](Cc1ccc(O)cc1)C(=O)N[C@@H](CC(C)C)C(=O)N[C@@H](CC(=O)O)C(=O)N[C@@H](CCCCN)C(=O)N[C@@H](CCC(N)=O)C(=O)N[C@@H](C)C(=O)N[C@@H](C)C(=O)NC(C)(C)C(=O)N[C@@H](CCC(=O)O)C(=O)N[C@@H](Cc1ccccc1)C(=O)N[C@H](C(=O)N[C@@H](CC(N)=O)C(=O)N[C@@H](Cc1c[nH]c2ccccc12)C(=O)N[C@@H](CC(C)C)C(=O)N[C@@H](CC(C)C)C(=O)N[C@@H](C)C(=O)NCC(=O)NCC(=O)N1CCC[C@H]1C(=O)N[C@@H](CO)C(=O)N[C@@H](CO)C(=O)NCC(=O)N[C@@H](C)C(=O)N1CCC[C@H]1C(=O)N1CCC[C@H]1C(=O)N1CCC[C@H]1C(=O)N[C@@H](CO)C(=O)N[C@@H](CCCCN)C(N)=O)C(C)C` [Compound 119], the Emax was found to be 97% in assay [1] (Table 3), 97% in assay [1] (Table 3A), 41% in assay [3] (Table 3) and 41% in assay [3] (Table 3A). Further, the EC50 in assay [1] (setting [4]) is less than 0.1 nM; in assay [1] (setting [5]), less than 0.1 nM; in assay [2] (setting [6]), less than 10 nM; in assay [3] (setting [7]), 1 to 10 nM; in assay [3] (setting [8]) it was 10 to 100 nM.

In the case of `CCCCCCCCCCCCCCCC(=O)N[C@@H](CCC(=O)NCCCC[C@H](NC(=O)[C@H](CO)NC(=O)[C@@H]1CCCN1C(=O)[C@@H]1CCCN1C(=O)[C@@H]1CCCN1C(=O)[C@H](C)NC(=O)CNC(=O)[C@H](CO)NC(=O)[C@H](CO)NC(=O)[C@@H]1CCCN1C(=O)CNC(=O)CNC(=O)[C@H](C)NC(=O)[C@H](CC(C)C)NC(=O)[C@H](CC(C)C)NC(=O)[C@H](Cc1c[nH]c2ccccc12)NC(=O)[C@H](CC(N)=O)NC(=O)[C@@H](NC(=O)[C@H](Cc1ccccc1)NC(=O)[C@H](CCC(=O)O)NC(=O)C(C)(C)NC(=O)[C@H](C)NC(=O)[C@H](C)NC(=O)[C@H](CCC(N)=O)NC(=O)[C@H](CCCCN)NC(=O)[C@H](CC(=O)O)NC(=O)[C@H](CC(C)C)NC(=O)[C@H](Cc1ccc(O)cc1)NC(=O)[C@@H](NC(=O)[C@H](CO)NC(=O)[C@H](Cc1ccc(O)cc1)NC(=O)[C@H](CC(=O)O)NC(=O)[C@H](CO)NC(=O)[C@@H](NC(=O)[C@H](Cc1ccccc1)NC(=O)[C@@H](NC(=O)CNC(=O)[C@H](CCC(=O)O)NC(=O)CSCC(=O)NCCN1C(=O)CCCC1=O)[C@@H](C)O)[C@@H](C)O)[C@@H](C)CC)C(C)C)C(N)=O)C(=O)O` [Compound 123], the EC50 in assay [1] (EC50 GLP-1R/nM, Table 3) was 1 to 10 nM; in assay [1] (EC50 GLP-1R/nM, Table 3A), 1 to 10 nM; in assay [2], greater than 1000 nM; in assay [3] (EC50 GIP-R/nM, Table 3), 0.1 to 1 nM; in assay [3] (EC50 GIP-R/nM, Table 3A), 0.1 to 1 nM. The Emax in assay [1] (Table 3) stood at 104%; in assay [1] (Table 3A), 104%; in assay [3] (Table 3) it was 111%; in assay [3] (Table 3A) it was 111%.

With `CC[C@H](C)[C@H](NC(=O)[C@H](CO)NC(=O)[C@H](Cc1ccc(O)cc1)NC(=O)[C@H](CC(=O)O)NC(=O)[C@H](CO)NC(=O)[C@@H](NC(=O)[C@H](Cc1ccccc1)NC(=O)[C@@H](NC(=O)CNC(=O)[C@H](CCC(=O)O)NC(=O)CC(=O)NCCCN1C(=O)c2ccc(C)cc2C1=O)[C@@H](C)O)[C@@H](C)O)C(=O)N[C@@H](Cc1ccc(O)cc1)C(=O)N[C@@H](CC(C)C)C(=O)N[C@@H](CC(=O)O)C(=O)N[C@@H](CCCCN)C(=O)N[C@@H](CCC(N)=O)C(=O)N[C@@H](C)C(=O)N[C@@H](C)C(=O)NC(C)(C)C(=O)N[C@@H](CCC(=O)O)C(=O)N[C@@H](Cc1ccccc1)C(=O)N[C@H](C(=O)N[C@@H](CC(N)=O)C(=O)N[C@@H](Cc1c[nH]c2ccccc12)C(=O)N[C@@H](CC(C)C)C(=O)N[C@@H](CC(C)C)C(=O)N[C@@H](C)C(=O)NCC(=O)NCC(=O)N1CCC[C@H]1C(=O)N[C@@H](CO)C(=O)N[C@@H](CO)C(=O)NCC(=O)N[C@@H](C)C(=O)N1CCC[C@H]1C(=O)N1CCC[C@H]1C(=O)N1CCC[C@H]1C(=O)N[C@@H](CO)C(=O)N[C@@H](CCCCN)C(N)=O)C(C)C` [Compound 128], the EC50 is 1 to 10 nM in assay [1] (EC50 GLP-1R/nM, Table 3); 1 to 10 nM in assay [1] (EC50 GLP-1R/nM, Table 3A); greater than 1000 nM in assay [2]; 1 to 100 nM in assay [3] (setting [9]); 1 to 100 nM in assay [3] (setting [10]). For the same molecule, the Emax was 99% in assay [1] (Table 3), 99% in assay [1] (Table 3A), 68% in assay [3] (Table 3) and 68% in assay [3] (Table 3A).

As for `CC[C@H](C)[C@H](NC(=O)[C@H](CO)NC(=O)[C@H](Cc1ccc(O)cc1)NC(=O)[C@H](CC(=O)O)NC(=O)[C@H](CO)NC(=O)[C@@H](NC(=O)[C@H](Cc1ccccc1)NC(=O)[C@@H](NC(=O)CNC(=O)[C@H](CCC(=O)O)NC(=O)C(C)(C)C(=O)NCCCN1C(=O)c2ccc(C)cc2C1=O)[C@@H](C)O)[C@@H](C)O)C(=O)N[C@@H](Cc1ccc(O)cc1)C(=O)N[C@@H](CC(C)C)C(=O)N[C@@H](CC(=O)O)C(=O)N[C@@H](CCCCN)C(=O)N[C@@H](CCC(N)=O)C(=O)N[C@@H](C)C(=O)N[C@@H](C)C(=O)NC(C)(C)C(=O)N[C@@H](CCC(=O)O)C(=O)N[C@@H](Cc1ccccc1)C(=O)N[C@H](C(=O)N[C@@H](CC(N)=O)C(=O)N[C@@H](Cc1c[nH]c2ccccc12)C(=O)N[C@@H](CC(C)C)C(=O)N[C@@H](CC(C)C)C(=O)N[C@@H](C)C(=O)NCC(=O)NCC(=O)N1CCC[C@H]1C(=O)N[C@@H](CO)C(=O)N[C@@H](CO)C(=O)NCC(=O)N[C@@H](C)C(=O)N1CCC[C@H]1C(=O)N1CCC[C@H]1C(=O)N1CCC[C@H]1C(=O)N[C@@H](CO)C(=O)N[C@@H](CCCCN)C(N)=O)C(C)C` [Compound 129], the Emax in assay [1] (Table 3) was in the range of 91 to 95%; in assay [1] (Table 3A), 91 to 95%; in assay [3] (Table 3), 102 to 109%; in assay [3] (Table 3A) it was 102 to 109%. Moreover, the EC50 in assay [1] (read-out: EC50 GLP-1R/nM, Table 3) is 1 to 100 nM; in assay [1] (read-out: EC50 GLP-1R/nM, Table 3A), 1 to 100 nM; in assay [2], greater than 1000 nM; in assay [3] (setting [9]) it was 0.1 to 10 nM; in assay [3] (setting [10]), 0.1 to 10 nM.

The values are drawn from patent publication US20260176320A1, “MODULATORS OF G-PROTEIN COUPLED RECEPTORS” (priority 2018, published 2026).
